One test deals with NAMPT (Homo sapiens (Human), UniProt P43490). Briefly: Biochemical Inhibition Assay (NAMPT enzymatic reaction, NMN quantified by mass spectrometry). The settings on record: 33 nM recombinant His-tagged NAMPT, 1 μM NAM, 30 min at rt. The gist of the method:
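His-tagged human NAMPT from E. coli preincubated 15 min at rt with compound in 50 mM Hepes pH 7.5, 50 mM NaCl, 5 mM MgCl2, 1 mM THP, then reacted 30 min at rt with 1 μM NAM, […] PRPP, 2.5 mM ATP. NMN quantified by RapidFire mass spectrometry, normalized to L-Cystathionine, background subtracted.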

A further test relates to A2780 cells. Description: In-Vitro Cell Proliferation Assay (SRB). The settings on record: Homo sapiens, A2780, 72 h.
The mark [1] stands for this setting: read-out: Cell Proliferation (IC50).
Where [2] appears, read: read-out: Cell Proliferation (IC50), A2780 cells, 72 h, sulforhodamine B.

The structures appear in SMILES notation. Read-outs that look alike come from different tables or passages of the source.

Sequence of NAMPT (P43490 whole entry): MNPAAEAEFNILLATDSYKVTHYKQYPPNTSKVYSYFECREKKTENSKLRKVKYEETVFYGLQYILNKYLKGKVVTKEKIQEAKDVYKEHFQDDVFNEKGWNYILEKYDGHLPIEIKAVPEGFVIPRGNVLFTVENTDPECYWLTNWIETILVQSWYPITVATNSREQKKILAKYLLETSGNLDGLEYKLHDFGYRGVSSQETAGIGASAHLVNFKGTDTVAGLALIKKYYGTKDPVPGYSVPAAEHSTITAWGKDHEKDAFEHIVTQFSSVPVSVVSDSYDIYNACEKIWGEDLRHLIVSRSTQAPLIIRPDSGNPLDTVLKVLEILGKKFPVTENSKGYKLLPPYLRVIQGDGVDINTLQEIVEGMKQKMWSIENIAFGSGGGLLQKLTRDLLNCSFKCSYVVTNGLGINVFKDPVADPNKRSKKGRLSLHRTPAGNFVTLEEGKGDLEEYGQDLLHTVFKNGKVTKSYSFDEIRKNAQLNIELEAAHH

For `N#Cc1cccc(S(=O)(=O)c2ccc(CNC(=O)c3cc4ccncc4o3)nc2)c1` [Example 151, N-[[5-(3-cyanophenyl)sulfonyl-2-pyridyl]methyl]furo[2,3-c]pyridine-2-carboxamide], the IC50 on NAMPT is 55.2 nM; in the test with A2780 cells (setting [1]), 54.6 nM.

As to `CS(=O)(=O)c1cccc(S(=O)(=O)c2ccc(CNC(=O)c3ccc4nccn4c3)nc2)c1` [Example 137, N-[[5-(3-methylsulfonylphenyl)sulfonyl-2-pyridyl]methyl]imidazo[1,2-a]pyridine-6-carboxamide], the IC50 on NAMPT was determined as 56.8 nM; with A2780 cells (setting [1]), 81.6 nM.

On to `O=C(NCc1ccc(S(=O)(=O)c2ccc(N3CCOCC3)nc2)cn1)c1ccc2nccn2c1` [Example 35, Imidazo[1,2-a]pyridine-6-carboxylic acid [5-(6-morpholin-4-yl-pyridine-3-sulfonyl)-pyridin-2-ylmethyl]-amide], for which the IC50 at NAMPT is 8.6 nM; with A2780 cells (setting [1]) it was 2 nM.

With `Nc1ccc(S(=O)(=O)c2ccc(CNC(=O)N3Cc4ccncc4C3)nc2)cn1` [Example 150, N-[[5-[(6-amino-3-pyridyl)sulfonyl]-2-pyridyl]methyl]-1,3-dihydropyrrolo[3,4-c]pyridine-2-carboxamide], the IC50 came to 99.2 nM at NAMPT and 678 nM with A2780 cells (setting [1]).

With `O=C(NCc1ccc(S(=O)(=O)N2CCN(C3COC3)CC2)cn1)N1Cc2ccncc2C1` [Example 142, N-[[5-[4-(oxetan-3-yl)piperazin-1-yl]sulfonyl-2-pyridyl]methyl]-1,3-dihydropyrrolo[3,4-c]pyridine-2-carboxamide], the figures for the IC50 at NAMPT and with A2780 cells (setting [1]) were 220 nM and 255 nM, respectively.

For the molecule `O=C(NCc1ccc(S(=O)(=O)c2cccc(N3CCOCC3)c2)cn1)c1ccc2nccn2c1` [Example 154, N-[[5-(3-morpholinophenyl)sulfonyl-2-pyridyl]methyl]imidazo[1,2-a]pyridine-6-carboxamide], the IC50 amounted to 39.8 nM on NAMPT and 46.5 nM in the test on A2780 cells (setting [1]).

Take `O=C(NCc1ccc(S(=O)(=O)C2CCNCC2)cn1)c1cc2ccncc2o1` [Example 26, Furo[2,3-c]pyridine-2-carboxylic acid [5-(piperidine-4-sulfonyl)-pyridin-2-ylmethyl]-amide]: the IC50 at NAMPT turned out to be 204 nM; in the test on A2780 cells (setting [1]), 2000 nM.

`CS(=O)(=O)c1cccc(S(=O)(=O)c2ccc(CNC(=O)c3cc4ccncc4o3)nc2)c1` [Example 124, N-[[5-(3-methylsulfonylphenyl)sulfonyl-2-pyridyl]methyl]furo[2,3-c]pyridine-2-carboxamide]: the IC50 was 13 nM at NAMPT and 18.9 nM in the test on A2780 cells (setting [1]).

Consider `COc1cc(OC)cc(S(=O)(=O)c2ccc(CNC(=O)c3cc4ccncc4o3)nc2)c1` [Example 112, N-[[5-(3,5-dimethoxyphenyl)sulfonyl-2-pyridyl]methyl]furo[2,3-c]pyridine-2-carboxamide], for which the figures for the IC50 on NAMPT and with A2780 cells (setting [1]) were 0.99 nM and 1.06 nM, respectively.

As to `O=C(NCc1ccc(S(=O)(=O)c2cnc(N3CCCC3)s2)cn1)c1cc2ccncc2o1` [Example 138, N-[[5-(2-pyrrolidin-1-ylthiazol-5-yl)sulfonyl-2-pyridyl]methyl]furo[2,3-c]pyridine-2-carboxamide], the figures for the IC50 at NAMPT and in the test on A2780 cells (setting [1]) were 9.45 nM and 2.84 nM, respectively.

As to `O=C(NCc1ccc(S(=O)(=O)c2cncc(C(F)(F)F)c2)cn1)c1cc2ccncc2o1` [Example 163, N-[[5-[[5-(trifluoromethyl)-3-pyridyl]sulfonyl]-2-pyridyl]methyl]furo[2,3-c]pyridine-2-carboxamide], the values for the IC50 on NAMPT and in the test with A2780 cells (setting [1]) were 49.5 nM and 25.3 nM, respectively.

On to `O=C(NCc1ccc(S(=O)(=O)c2cccc(C(F)(F)F)c2)cn1)N1Cc2ccncc2C1` [Example 49, 1,3-Dihydro-pyrrolo[3,4-c]pyridine-2-carboxylic acid [5-(3-trifluoromethyl-benzenesulfonyl)-pyridin-2-ylmethyl]-amide], for which the IC50 at NAMPT turned out to be 3.7 nM; in the test with A2780 cells (setting [1]), 34.5 nM.

Regarding `CN(C)c1ncc(S(=O)(=O)c2ccc(CNC(=O)c3ccc4nccn4c3)nc2)s1` [Example 74, Imidazo[1,2-a]pyridine-6-carboxylic acid [5-(2-dimethylamino-thiazole-5-sulfonyl)-pyridin-2-ylmethyl]-amide], the IC50 was 7.8 nM on NAMPT and 2.4 nM in the test on A2780 cells (setting [1]).

Consider `O=C(NCc1ccc([S+]([O-])C2CCN(CC(F)(F)F)CC2)cn1)c1ccc2nccn2c1` (centres unmarked) [Example 173, N-[[5-[[1-(2,2,2-trifluoroethyl)-4-piperidyl]sulfinyl]-2-pyridyl]methyl]imidazo[1,2-a]pyridine-6-carboxamide], for which the IC50 at NAMPT came out at 202 nM; with A2780 cells (setting [1]) it was 63.1 nM.

In the case of `CN(C)c1ncc(S(=O)(=O)c2ccc(CNC(=O)c3cc4ccncc4s3)nc2)s1` [Example 75, Thieno[2,3-c]pyridine-2-carboxylic acid [5-(2-dimethylamino-thiazole-5-sulfonyl)-pyridin-2-ylmethyl]-amide], the IC50 at NAMPT stood at 2.2 nM; with A2780 cells (setting [1]), 0.8 nM.

Regarding `O=C(NCc1ccc([S+]([O-])c2cccc(OC(F)(F)F)c2)cn1)c1ccc2nccn2c1` (racemic) [Example 101, Imidazo[1,2-a]pyridine-6-carboxylic acid [5-(3-trifluoromethoxy-benzenesulfinyl)-pyridin-2-ylmethyl]-amide (racemic)], the IC50 at NAMPT is 31.5 nM; in the test with A2780 cells (setting [2]), 40.2 nM.

Turning to `O=C(NCc1ccc(S(=O)(=O)c2ccc(N3CCOCC3)nc2)cn1)c1cc2ccncc2o1` [Example 52, Furo[2,3-c]pyridine-2-carboxylic acid [5-(6-morpholin-4-yl-pyridine-3-sulfonyl)-pyridin-2-ylmethyl]-amide], the IC50 was 2 nM on NAMPT and 0.5 nM in the test on A2780 cells (setting [2]).

With `O=C(NCc1ncc(S(=O)(=O)c2cc(F)cc(F)c2)cn1)c1cc2ccncc2o1` [Example 182, N-[[5-(3,5-difluorophenyl)sulfonyl-pyrimidin-2-yl]methyl]furo[2,3-c]pyridine-2-carboxamide], the figures for the IC50 at NAMPT and in the test with A2780 cells (setting [1]) were 25.1 nM and 40.5 nM, respectively.

Take `CN1CCN(c2ccc(S(=O)(=O)c3ccc(CNC(=O)c4cnc5nccn5c4)nc3)cn2)CC1` [Example 47, Imidazo[1,2-a]pyrimidine-6-carboxylic acid {5-[6-(4-methyl-piperazin-1-yl)-pyridine-3-sulfonyl]-pyridin-2-ylmethyl}-amide]: the IC50 on NAMPT is 2.2 nM; in the test on A2780 cells (setting [1]), 14.1 nM.

As to `O=C(NCc1ccc(S(=O)(=O)c2ccc(C(F)(F)F)nc2)cn1)c1cc2ccncc2s1` [Example 78, Thieno[2,3-c]pyridine-2-carboxylic acid [5-(6-trifluoromethyl-pyridine-3-sulfonyl)-pyridin-2-ylmethyl]-amide], the IC50 stood at 59.4 nM on NAMPT and 551 nM in the test with A2780 cells (setting [1]).

Consider `CN1CCN(c2ccc(S(=O)(=O)c3ccc(CNC(=O)c4ccc5nccn5c4)nc3)cn2)CC1` [Example 46, Imidazo[1,2-a]pyridine-6-carboxylic acid {5-[6-(4-methyl-piperazin-1-yl)-pyridine-3-sulfonyl]-pyridin-2-ylmethyl}-amide], for which the IC50 on NAMPT was 6.9 nM; with A2780 cells (setting [1]), 1.6 nM.

For the molecule `O=C(NCc1ccc(S(=O)(=O)c2ccc(C(F)(F)F)nc2)cn1)c1ccc2nccn2c1` [Example 82, Imidazo[1,2-a]pyridine-6-carboxylic acid [5-(6-trifluoromethyl-pyridine-3-sulfonyl)-pyridin-2-ylmethyl]-amide], the IC50 at NAMPT is 72.3 nM; in the test with A2780 cells (setting [1]) it was 330 nM.

In the case of `O=C(NCc1ccc(S(=O)(=O)C2CCCCC2)cn1)N1Cc2ccncc2C1` [Example 59, 1,3-Dihydro-pyrrolo[3,4-c]pyridine-2-carboxylic acid (5-cyclohexanesulfonyl-pyridin-2-ylmethyl)-amide], the figures for the IC50 at NAMPT and with A2780 cells (setting [2]) were 27.5 nM and 237 nM, respectively.

For the molecule `O=C(NCc1ncc(S(=O)(=O)c2ccccc2)cn1)c1cnc2nccn2c1` [Example 12, Imidazo[1,2-a]pyrimidine-6-carboxylic acid (5-benzenesulfonyl-pyrimidin-2-ylmethyl)-amide], the IC50 on NAMPT was found to be 19.1 nM; with A2780 cells (setting [1]), 828 nM.

With `O=C(NCc1ccc([S+]([O-])c2cc(F)cc(F)c2)cn1)c1cnc2nccn2c1` (racemic) [Example 24, Imidazo[1,2-a]pyrimidine-6-carboxylic acid [5-(3,5-difluoro-benzenesulfinyl)-pyridin-2-ylmethyl]-amide (racemic)], the IC50 is 16.2 nM at NAMPT and 275 nM in the test on A2780 cells (setting [1]).

As for `O=C(NCc1ccc(S(=O)(=O)c2cccc(C(F)(F)F)c2)cn1)c1ccc2nccn2c1` [Example 10, Imidazo[1,2-a]pyridine-6-carboxylic acid [5-(3-trifluoromethyl-benzenesulfonyl)-pyridin-2-ylmethyl]-amide], the IC50 on NAMPT amounted to 12.7 nM; in the test with A2780 cells (setting [2]) it was 8.3 nM.

For `O=C(NCc1ccc(S(=O)(=O)N2CCC(N3CCCC3)CC2)cn1)c1cnc2[nH]ncc2c1` [Example 149, N-[[5-[(4-pyrrolidin-1-yl-1-piperidyl)sulfonyl]-2-pyridyl]methyl]-1H-pyrazolo[3,4-b]pyridine-5-carboxamide], the IC50 on NAMPT came out at 619 nM; in the test on A2780 cells (setting [2]), 1860 nM.

With `CC(C)CN1CCC([S+]([O-])c2ccc(CNC(=O)c3cc4ccncc4o3)nc2)CC1` (racemic) [Example 102, Furo[2,3-c]pyridine-2-carboxylic acid [5-(1-isobutyl-piperidine-4-sulfinyl)-pyridin-2-ylmethyl]-amide (racemic)], the IC50 was 69.3 nM on NAMPT and 25.6 nM with A2780 cells (setting [1]).

Values taken from patent publication US9458172B2, “Pyridinyl and pyrimidinyl sulfoxide and sulfone derivatives” (priority 2012, dated 2016).
